# US20250333745A1, “METHODS AND COMPOSITIONS FOR TREATMENT OF POLYCYSTIC KIDNEY DISEASE” (Regulus Therapeutics Inc., priority 2016, published 2025)
# Columns and labels:
# [1] = In vivo study of research tool compound (proinflammatory effect)
# Description: Further, the research tool compound was not sufficiently efficacious for development as a pharmaceutical agent for the treatment of PKD. Accordingly, a screen was performed to identify inhibitors of one or more miR-17 family members that are sufficiently efficacious, convenient to administer, and safe for administration to subjects with PKD. An additional criterion was a sufficiently high kidney-to-liver delivery ratio, to enhance the proportion of anti-miR-17 compound that is delivered to the target organ.
# [2] = system: miR-17; assay: microRNA polysome shift assay (miPSA), kidney target engagement; assay type: in vivo, mouse; set-up: miPSA Score Wild Type Mice / miPSA Score PKD Mice / miPSA displacement score (mean): scale not given here; conditions: for miPSA Kidney AUC (8 hours to 7 days) / Potency Kidney D7: wild-type mice, single s.c. dose 30 mg/kg; for Potency Kidney D7: day 7
# Description: (§1) In vivo potency was evaluated using the microRNA polysome shift assay (miPSA). This assay was used to determine the extent to which compounds directly engage the miR-17 target in the kidney in normal and PKD mice. The miPSA relies on the principle that active miRNAs bind to their mRNA targets in translationally active high molecular weight (HMW) polysomes, whereas the inhibited miRNAs reside in the low MW (LMW) polysomes. Treatment with anti-miR results in a shift of the microRNA from HMW polysomes to LMW polysomes. Thus, the miPSA provides a direct measurement of microRNA target engagement by a complementary anti-miR (Androsavich et al., Nucleic Acids Research, 2015, 44: e13).
# (§2) The miPSA was used to assess the potency of each compound, measured by the displacement score, in wild type and JCK mice. Tissue accumulation of anti-miR-17 compound was measured by extraction of compound using liquid-liquid extraction (LLE) and/or solid-phase extraction (SPE), followed by analysis of the identity and concentration of compound using ion-pairing-reversed-phase high performance liquid chromatography coupled with time-of-flight mass spectrometry (IP—RP-HPLC-TOF).
# (§3) Wild type mice were administered a single dose of 3 mg/kg for the miPSA analysis, and a single dose of 30 mg/kg for the tissue accumulation analysis. JCK mice were administered a single dose of 30 mg/kg for both the miPSA and tissue accumulation analyses. Kidney tissue was collected seven days following the administration of anti-miR-17 compound. […] A higher kidney-to-liver ratio is generally preferred for a disease where the primary site of action is the kidney.
# as §1, with “The” for “In vivo potency was evaluated using the”, “(miPSA),” for “(miPSA). This assay”, “identify” for “determine the extent to which”, “compounds that” for “compounds”, “engage” for “engage the”, “miR-17” for “miR-17 target”
# For this experiment, the PKD model selected was the JCK model, a mouse model of slowly progressing renal cystic disease associated with the same gene that causes human nephronophthisis type 9. Renal cysts in this mouse develop in multiple regions of the nephron.
# C57BL6 mice were treated with a single, subcutaneous dose of 0.3, 3, and 30 mg/kg of RG4326 or tool anti-miR-17 (described in Example 1). JCK mice were treated with a single, subcutaneous dose of 3, 30, and 100 mg/kg of RG4326 or tool anti-miR-17. PBS treatment was used as an additional control. At seven days post-treatment, mice were sacrificed, and kidney tissue was isolated for the miPSA. […] The displacement scores following treatment with RG4326 were greater than the displacement scores following treatment with the tool anti-miR-17 compound. The data for wild-type mice and JCK mice are also shown in FIG. 3A and FIG. 3B, respectively.
# Pharmacokinetic behavior was assessed by administering a single subcutaneous 30 mg/kg dose of RG4326 or tool anti-miR-17 compound to wild-type mice. At one hour, four hours, eight hours, one day, seven days, 14 days, 28 days and 56 days following the single injection, mice were sacrificed and the mean concentration of anti-miR compound in kidney and liver tissue was measured (ug/g) as described above. The area-under-curve (AUC) was calculated for kidney and liver tissue using the formula ug*h/g, where ug is the amount of oligonucleotide in the tissue, h is the timepoint of tissue collection in hours, and g is the weight of the tissue. The ratio of kidney AUC to liver AUC was determined. Kidney tissue was also processed to the miPSA, to determine target engagement for each compound in this study. […]
# [3] = Biochemical fluorescent binding assay (FBA); conditions: fold change relative to control-treated samples
# Description: In in vitro assays, the potential for toxicity was assessed using a biochemical fluorescent binding assay (FBA) and a liver or kidney slice assay. The FBA is performed by incubating a fluorescent dye with each compound, and immediately measuring fluorescence. Highly fluorescent compounds have the potential to produce toxicity in vivo. The liver or kidney slice assay is performed by incubating a slice of tissue from a core liver sample isolated from rat. Following a 24-hour incubation, RNA is extracted from the tissue slice, and the expression levels of 18 pro-inflammatory genes are measured. An induction in pro-inflammatory gene expression indicates a potential for pro-inflammatory effects in vivo.
# The potential for toxicity was assessed using a biochemical fluorescent binding assay (FBA). The FBA is performed by incubating a fluorescent dye with each compound, and immediately measuring fluorescence. Results are expressed as fold change (Linear FC) relative to control-treated samples. Highly fluorescent compounds have the potential to produce toxicity in vivo.
# [4] = In vitro metabolic stability in monkey liver lysate; assay type: in vitro ADME; conditions: 24-hour incubation of RG4326
# Description: Due to their reduced capacity for serum protein binding, which is a property that drives oligonucleotide distribution in the body, short oligonucleotides are not necessarily expected to have pharmacokinetic properties that make them suitable for use as drugs. RG4326 was incubated in mouse, monkey or human liver homogenate. The identity and concentration of RG4326 and metabolites was determined after a 24-hour incubation. RG4326 and metabolites were extracted using liquid-liquid extraction (LLE) and/or solid-phase extraction (SPE), which were then analyzed for identity and concentration using ion-pairing-reversed-phase high performance liquid chromatography coupled with time-of-flight mass spectrometry (IP—RP-HPLC-TOF).
# [5] = Tissue accumulation in kidney and liver (kidney-to-liver ratio); assay type: in vivo, mouse; conditions: single dose 30 mg/kg, seven days
# Description: Pharmacokinetic properties and tissue distribution of select compounds were assessed in wild type C57BL6 mice and JCK mice (an experimental model of PKD). Compound was administered to wild type mouse at a dose of 0.3, 3, or 30 mg/kg, or to JCK mice at a dose of 3, 30, or 100 mg/kg. After seven days, mice were sacrificed. Kidney and liver tissues were collected. Concentration of anti-miR-17 compound was measured in liver and kidney. Compounds that accumulate to a greater level in kidney, relative to liver (i.e., have a higher kidney-to-liver ratio) were preferred.
# as §2, §3
# [6] = JCK mice, single subcutaneous 3 mg/kg, kidney, seven days
# [7] = JCK mice, single subcutaneous 30 mg/kg, kidney, seven days
# [8] = JCK mice, single subcutaneous 100 mg/kg, kidney, seven days
# [9] = Normal (C57BL6) mice, single subcutaneous 0.3 mg/kg, kidney, seven days
# [10] = Normal (C57BL6) mice, single subcutaneous 3 mg/kg, kidney, seven days
# [11] = Normal (C57BL6) mice, single subcutaneous 30 mg/kg, kidney, seven days
Compound,proinflammatory effect (in words) [1],"miPSA displacement score (mean) [2, 6]","miPSA displacement score (mean) [2, 7]","miPSA displacement score (mean) [2, 8]","miPSA displacement score (mean) [2, 9]","miPSA displacement score (mean) [2, 10]","miPSA displacement score (mean) [2, 11]",miPSA Kidney AUC (8 hours to 7 days) [2],Potency Kidney D7 [2],Biochemical Fluorescence Binding Assay Relative Fluorescence Unit (Linear FC) [3],"miPSA Score PKD Mice ([2]; JCK mice, single dose 30 mg/kg, kidney, seven days)","miPSA Score Wild Type Mice ([2]; wild type mice, single dose 3 mg/kg, kidney, seven days)","Ex Vivo Liver Lysate (% Analyte), Monkey [4]",Kidney-to-Liver Ratio PKD Mice ([5]; JCK mice),Kidney-to-Liver Ratio Wild Type Mice ([5]; wild type mice)
"5′-CTGCACTGTAAGCACTTTG-3′ (all phosphorothioate, sugars by position and methylation of C not given here; DNA, 2'-MOE and S-cEt sugars) [Tool anti-miR-17, reference compound]",slightly proinflammatory,0.97,1.67,2.08,1.51,2.05,2.77,296 Log2FC * h,0.047 Log2FC * g/ug,,,,,,
"COC1C(OP(=O)(S)OC[C@H]2O[C@@H](n3cnc4c(N)ncnc43)C(F)C2OP(=O)(S)OC[C@H]2O[C@@H](n3ccc(N)nc3=O)C(F)C2OP(=O)(S)OC[C@H]2O[C@@H](n3ccc(=O)[nH]c3=O)C(F)C2OP(=O)(S)OC[C@H]2O[C@@H](n3ccc(=O)[nH]c3=O)C(OC)C2OP(=O)(S)OC[C@]23O[C@@H](n4ccc(=O)[nH]c4=O)C(O[C@H]2C)C3OP(=O)(S)OC[C@]23O[C@@H](n4cnc5c(=O)[nH]c(N)nc54)C(O[C@H]2C)C3O)[C@@H](COP(=O)(S)OC2C3O[C@@H](C)[C@]2(COP(=O)(S)OC2C4O[C@@H](C)[C@]2(CO)O[C@H]4n2cnc4c(N)ncnc42)O[C@H]3n2cnc3c(=O)[nH]c(N)nc32)O[C@H]1n1ccc(N)nc1=O (stereo in doubt) [RG4326, ASGSCMAFCFUFUMUSGS]",,1.63,2.58,2.73,2.29,2.91,3.19,463 Log2FC * h,0.351 Log2FC * g/ug,24.9 ± 3.1 Linear FC,2.65,2.63,95.9%,6.0,9.8
